# Reference: patent publication US5541174A, “Analgesic method” (priority 1995, dated 1996)
# Legend:
# [1] = tested on: acetic acid induced writhing in mice; experiment: Acetic acid-induced writhing test; format: in vivo, ICR male mice; settings: for activity versus other copper complexes and parent ligand: Table VI
# Procedure: 1. Acetic acid-induced writhing test as described in Koster et al., "Acetic Acid for Analgesic Screening", Fed. Proc. 18, 412 (1959), incorporated by reference herein; and
# Groups of 10 ICR male mice (Taisho Pharmaceutical Co. Research Center) were used to study each dose of every compound. Ligands or complexes were administered orally or subcutaneously in 0.1 ml of vehicle per 10 g of body weight 30 minutes before the intrapertioneal injection of 0.1 ml of 0.7% acetic acid solution per 10 g of body weight. Number of writhes were counted for each mouse during a period of 10 to 20 min after acetic acid injection. Inhibitory percent was calculated by comparison with the number of writhes in the non-treated control, vehicle-treated, and acetic acid-injected group. The ED50 value and 95% confidence limits were calculated from the inhibitory percent by the method of Litchfield and Wilcoxon.
# [2] = tested on: adjuvant-induced arthritic pain in rats; experiment: Adjuvant-induced arthritic pain; format: in vivo, male Sprague-Dawley rats; settings: oral
# Text: 2. Adjuvant-induced arthritic pain as described in:
# S. KUZNA, et al., Measurement of Arthritic Pain and Effects of Analgesics in the Adjuvant-Treated Rat, Chem. Pharm. Bull. 23, 1184-1191 (1975);
# C. A. WINTER, et al., Analgesic Activity of Diflunisal in Rats with Hyperalygesia Induced by Freud's Adjuvant, J. Pharmacol. Exp. Ther. 211, 678-685 (1979; and
# M. E. ROSENTHALE, et al., Adjuvant Arthritis:Immuno-Pathological and Hyperalgesic Features, Fed. Proced. 41, 2577-2582 (1982),
# incorporated by reference herein.
# Groups of 5-6 male Sprague-Dawley rats (Taisho Pharmaceutical Co. Research Center) weighing 140 to 160 g at the time of Mycobacterium butyricum (adjuvant, Difco Laboratories, Detroit, Mich.) injection were used to study each compound. Rats were injected intradermally at the base of the tail with 0.1 ml of a parafin oil suspension of 0.5 mg of heat-killed mycobacterium. Fifteen to 19 days later, drugs were administered orally or subcutaneously in 0.5 ml of vehicle per 100 g of body weight to rats showing the nociceptive reaction, vocalization following a gentle flexion of the tarsal-tibial joint of the inflamed hind-paw. Vocalization responses were measured every hour for 5 hours. […] The ED50 value and 95% confidence limits were calculated from the positive rate for non-treated controls, vehicle-treated adjuvant arthritic rats, by the method of Litchfield and Wilcoxin.
# All drugs were suspended with 5% gum arabic in saline solution or wetted with enough propylene glycol to give a final concentration of 4% propylene glycol and the wetted solid suspended in 1.4% polyvinyl alcohol in saline.
compound,measurement,setting,value
"NCC(=O)O [Glycine, reference compound]",ED50,"[1]; oral, 5% gum arabic in saline",> 5.33 mmol/kg
same,% Inhibition,"[1]; oral, 5% gum arabic, 5.33 mmol/kg",36%
NCC(=O)[O-].NCC(=O)[O-].[Cu+2] [Cu(II)(glycinate)2],activity versus other copper complexes and parent ligand,[1],less active than the other copper complexes
same,ED50,"[1]; oral, 5% gum arabic in saline",> 1.89 mmol/kg
same,% Inhibition,"[1]; oral, 5% gum arabic, 1.89 mmol/kg",48%
N[C@@H](CSSC[C@H](N)C(=O)[O-])C(=O)[O-].[Cu+2] [Cu(II)(L-cystinate)],activity versus other copper complexes and parent ligand,[1],less active than the other copper complexes
same,ED50,"[1]; oral, 5% gum arabic in saline",> 0.33 mmol/kg
same,% Inhibition,"[1]; oral, 5% gum arabic, 0.33 mmol/kg",35%
same,ED50,[2]; 5% gum arabic in saline,> 0.33 mmol/kg
same,% Inhibition,"[2]; 5% gum arabic, 0.33 mmol/kg",0%
"N[C@@H](CS)C(=O)O [L-cysteine, reference compound]",ED50,"[1]; oral, 5% gum arabic in saline",> 3.30 mmol/kg
same,% Inhibition,"[1]; oral, 5% gum arabic, 3.30 mmol/kg",-5%
"COc1ccc2c(c1)c(CC(=O)O)c(C)n2C(=O)c1ccc(Cl)cc1 [Indomethacin, reference compound]",ED50,"[1]; oral, 5% gum arabic in saline",0.04 mmol/kg
same,% Inhibition,"[1]; oral, 5% gum arabic, 0.01 mmol/kg",36%
same,% Inhibition,"[1]; oral, 5% gum arabic, 0.03 mmol/kg",42%
same,% Inhibition,"[1]; oral, 5% gum arabic, 0.06 mmol/kg",58%
same,ED50,"[1]; oral, PG-PVA in saline",0.01 mmol/kg
same,% Inhibition,"[1]; oral, PG-PVA, 0.007 mmol/kg",27%
same,% Inhibition,"[1]; oral, PG-PVA, 0.014 mmol/kg",60%
same,% Inhibition,"[1]; oral, PG-PVA, 0.028 mmol/kg",68%
same,ED50,"[1]; s.c., PG-PVA in saline",0.02 mmol/kg
same,% Inhibition,"[1]; s.c., PG-PVA, 0.007 mmol/kg",19%
same,% Inhibition,"[1]; s.c., PG-PVA, 0.014 mmol/kg",36%
same,% Inhibition,"[1]; s.c., PG-PVA, 0.056 mmol/kg",60%
same,ED50,[2]; 5% gum arabic in saline,0.003 mmol/kg
same,% Inhibition,"[2]; 5% gum arabic, 0.001 mmol/kg",27%
same,% Inhibition,"[2]; 5% gum arabic, 0.003 mmol/kg",43%
same,% Inhibition,"[2]; 5% gum arabic, 0.006 mmol/kg",77%
same,ED50,[2]; PG-PVA in saline,0.02 mmol/kg
same,% Inhibition,"[2]; PG-PVA, 0.007 mmol/kg",23%
same,% Inhibition,"[2]; PG-PVA, 0.014 mmol/kg",43%
same,% Inhibition,"[2]; PG-PVA, 0.028 mmol/kg",70%
"O=C(O)c1cccnc1Nc1cccc(C(F)(F)F)c1 [Niflumic acid, 2[3(trifluoro-methyl)phenyl] aminonicotinic acid, reference compound]",ED50,"[1]; oral, 5% gum arabic in saline",0.15 mmol/kg
same,% Inhibition,"[1]; oral, 5% gum arabic, 0.18 mmol/kg",52%
same,% Inhibition,"[1]; oral, 5% gum arabic, 0.71 mmol/kg",75%
same,ED50,"[1]; oral, PG-PVA in saline",0.21 mmol/kg
same,% Inhibition,"[1]; oral, PG-PVA, 0.13 mmol/kg",38%
same,% Inhibition,"[1]; oral, PG-PVA, 0.27 mmol/kg",51%
same,% Inhibition,"[1]; oral, PG-PVA, 0.53 mmol/kg",80%
same,ED50,"[1]; s.c., PG-PVA in saline",0.10 mmol/kg
same,% Inhibition,"[1]; s.c., PG-PVA, 0.04 mmol/kg",21%
same,% Inhibition,"[1]; s.c., PG-PVA, 0.09 mmol/kg",54%
same,% Inhibition,"[1]; s.c., PG-PVA, 0.18 mmol/kg",64%
same,ED50,[2]; 5% gum arabic in saline,0.42 mmol/kg
same,% Inhibition,"[2]; 5% gum arabic, 0.18 mmol/kg",13%
same,% Inhibition,"[2]; 5% gum arabic, 0.71 mmol/kg",87%
same,ED50,[2]; PG-PVA in saline,0.48 mmol/kg
same,% Inhibition,"[2]; PG-PVA, 0.18 mmol/kg",23%
same,% Inhibition,"[2]; PG-PVA, 0.71 mmol/kg",60%
